Test results from article PMC13313556, “Development and characterization of triazole-based WDR5 inhibitors for the treatment of glioblastoma” (JCI Insight, 2026).
Read-outs that look alike come from different tables or passages of the source.

Columns and labels:
WDR5 = WDR5 (Homo sapiens, UniProt P61964); assay: WDR5 live cell CETSA in intact L0 CSCs (melting curve, isothermal Kd, washout); type: cell-based; set-up: we first used a cellular thermal shift (CETSA) assay in intact L0 CSCs; endogenous in cells; host or cells: L0 patient-derived GBM CSCs
Protocol: In total, 500,000 L0 CSCs, grown in suspension as spheroids, were split with Accutase and seeded in 1 mL of NBMc into each well of a 24-well dish. […] Cells were harvested by centrifugation (5 minutes, 500g) into SafeLock tubes (Eppendorf), washed once with 400 μL of PBS, and resuspended in 25 μL of CETSA Buffer (PBS + 1X Roche cOmplete Protease Inhibitor Cocktail + 3X Benzonase). […] One DMSO-treated sample was left unheated (representing 100% abundance i.e., fully bound) and 1 DMSO-treated sample was heated to 70°C (representing 0% abundance i.e., fully unbound). After heating, samples were lysed by 6X freeze-thaw cycles in LN2/hot water, rested for 10 minutes at room temperature, and then centrifuged for 30 minutes at > 14,000g at 4°C. 20 μL of the supernatant was transferred to a fresh tube into 5 μL of SDS-PAGE Loading Dye, boiled, and separated on 4%–20% Mini-PROTEAN Precast TGX Gels (Biorad). […] For CETSA washout experiments, a 10 cm dish with 6 × 10^6 to 8 × 10^6 L0 cells was treated for 2 hours with 5 μM compound or DMSO, washed 3 times with 15 mL of PBS (3 min, 400g), and split into 10 × 1 mL of fresh NBMc in a 24-well dish.

DI318 CSCs = assay: Extreme limiting dilution assay (ELDA) in DI318; type: cell-based, human; details: 14 days
Protocol: (§1) L0 and DI318 CSCs were split with Accutase as single cells into NBMc. In total, 200 μL of CSCs were seeded into each well of a 96-well TC treated plate (n = 10 well per density) at 50, 25, 13, 6, 3, and 1.5 cells/well. […] The stem cell frequency was quantified and treatments were compared with DMSO as described by Hu and Smyth ([98]).

DI318 flank PDX tumors = assay: ELDA of cells dissociated from DI318 flank tumors; type: in vivo, NSG mice; details: 30 mg/kg once a day i.p. over 7 days
Protocol: as §1
(1 picture or pasted object on this page, not shown here)

5 different CSC models = assay: 7-day CTG viability / cross-titration, panel of 5 CSC models; type: cell-based, human; details: Homo sapiens; 7-day assay, 5 CSC models
Protocol: For GI50 determination, compounds were stamped in technical triplicate, while for synergy cross-titrations dose-response matrices were prepared in technical duplicate. Different CSC lines, grown in suspension as spheroids, were split with Accutase and seeded directly on top of the prestamped compounds (50 μL of NBMc and 700 cells/well). The outer 4 rows (A,B and O,P row IDs) and 4 columns (1,2 and 23,24 column IDs) were filled with 80 μL of PBS to minimize evaporation. Cells were incubated with compounds for 7 days at 37°C/5% CO2 prior to the addition of 25 μL/well Cell-Titer Glo (Promega) and luminescence quantification on a Revvity EnVision plate reader. […] For the cross-titrations of 2 compounds, synergy scores were calculated using the MuSyC webserver ([79]).

WDR5-target genes = assay: RT-qPCR of WDR5-target genes in frozen DI318 flank tumor samples; type: in vivo, NSG mice; details: 30 mg/kg once a day i.p. over 7 days
[1] = system: intracranial L0 PDX tumors; assay: Long-term intracranial L0 xenograft; type: in vivo; details: 30 mg/kg once a day i.p.
Protocol: Briefly, L0 cells were intracranial injected into 6–12 week old NSG mice. Once fully anesthetized, mice were secured into a stereotaxic apparatus and 20,000 L0 Cells were injected into the left hemisphere 0.5 mm rostral and 1.8 mm lateral to the b4regma with 3.5 mm depth from the scalp. […] Animals were monitored over time for the presentation of neurological and behavioral symptoms at which time the animals were humanely euthanized. Survival analysis was completed using PRISM 9.1.2 and comparison were made using Log-Rank (Mantel-Cox) test.

P-glycoprotein (MDR1) = molecular target: T1, P-glycoprotein (MDR1) (Homo sapiens, UniProt P08183); assay: MDR1-MDCK permeability and efflux; type: in vitro ADME; details: for Papp A→B at 120 min, 5 μM / Papp B→A at 120 min, 5 μM / recovery at 120 min, 5 μM: dog, MDCK-MDR1, pH 7.4, 5 μM
T1 construct: host or cells: MDR1-MDCK cell monolayers
T1 sequence (P08183 whole entry): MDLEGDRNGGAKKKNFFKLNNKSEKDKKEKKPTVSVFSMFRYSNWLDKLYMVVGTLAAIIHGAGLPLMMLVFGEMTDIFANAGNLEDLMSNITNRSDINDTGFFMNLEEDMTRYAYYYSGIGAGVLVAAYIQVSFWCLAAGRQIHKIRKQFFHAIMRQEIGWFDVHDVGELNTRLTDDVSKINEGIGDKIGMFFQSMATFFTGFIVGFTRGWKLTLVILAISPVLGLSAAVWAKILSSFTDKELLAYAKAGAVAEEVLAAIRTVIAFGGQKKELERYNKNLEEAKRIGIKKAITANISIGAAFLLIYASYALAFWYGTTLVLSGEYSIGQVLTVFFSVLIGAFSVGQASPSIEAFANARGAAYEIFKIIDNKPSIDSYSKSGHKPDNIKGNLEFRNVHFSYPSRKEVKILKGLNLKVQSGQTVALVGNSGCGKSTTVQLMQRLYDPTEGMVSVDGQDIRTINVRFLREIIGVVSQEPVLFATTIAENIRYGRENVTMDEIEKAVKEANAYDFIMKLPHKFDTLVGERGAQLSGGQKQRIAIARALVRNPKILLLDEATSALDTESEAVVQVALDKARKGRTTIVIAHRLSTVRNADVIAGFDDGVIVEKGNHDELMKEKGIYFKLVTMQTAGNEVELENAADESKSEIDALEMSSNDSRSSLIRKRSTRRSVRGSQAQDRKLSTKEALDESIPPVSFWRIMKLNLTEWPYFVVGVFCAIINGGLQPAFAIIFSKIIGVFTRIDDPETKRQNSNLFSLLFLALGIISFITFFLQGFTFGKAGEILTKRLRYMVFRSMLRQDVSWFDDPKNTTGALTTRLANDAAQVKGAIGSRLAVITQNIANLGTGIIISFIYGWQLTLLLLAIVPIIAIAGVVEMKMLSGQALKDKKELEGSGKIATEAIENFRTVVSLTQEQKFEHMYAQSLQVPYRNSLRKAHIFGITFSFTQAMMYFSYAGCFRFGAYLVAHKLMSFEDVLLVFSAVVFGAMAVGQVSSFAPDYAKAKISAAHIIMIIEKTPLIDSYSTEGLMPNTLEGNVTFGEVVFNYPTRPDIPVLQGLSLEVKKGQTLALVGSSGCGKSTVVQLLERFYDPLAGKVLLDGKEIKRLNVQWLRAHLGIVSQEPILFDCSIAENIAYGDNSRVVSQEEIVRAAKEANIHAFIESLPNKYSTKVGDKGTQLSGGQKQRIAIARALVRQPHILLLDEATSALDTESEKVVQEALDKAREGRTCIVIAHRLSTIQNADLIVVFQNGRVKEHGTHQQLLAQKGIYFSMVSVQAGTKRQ
Protocol: Test Direction Recovery Papp (10-6 cm/s) Efflux Brain
Article (%) R1 R2 AVG Ratio Penetration
Supplemental Figure 4. Blood-brain barrier (BBB) penetration potential using MDR1-MDCK cell monolayers. All P-glycoprotein (MDR1) permeability and efflux studies were conducted at Absorption Systems (parent company Pharmaron). In brief, MDR1-MDCK monolayers were grown to confluence on collagen-coated, microporous membranes in 12-well assay plates. The permeability assay buffer was Hanks’ balanced salt solution containing 10 mM HEPES and 15 mM glucose at a pH of 7.4. The buffer in the receiver chamber also contained 1% bovine serum albumin. The dosing solution concentration was 5 μM of test article in the assay buffer. Cell monolayers were dosed on the apical side (A-to-B) or basolateral side (B-to-A) and incubated at 37°C with 5% CO2 in a humidified incubator. Samples were taken from the donor and receiver chambers after 120 minutes. Each determination was performed in duplicate. The flux of lucifer yellow was also measured post-experimentally for each monolayer to ensure no damage was inflicted to the cell monolayers during the flux period. All samples were assayed by LC-MS/MS using electrospray ionization. Efflux ratio (ER) is defined as Papp (B-to-A) / Papp […]

In situ brain perfusion = type: in vivo, mice; details: 2-minute perfusion, 10 μM
Protocol: To evaluate the permeability across the blood-brain barrier of WDR5 inhibitors in the absence of hepatic clearance, we utilized the in situ brain perfusion technique. Mice were anesthetized via i.p. injection of 100 mg/kg ketamine and 80 mg/kg xylazine. The peritoneal cavity was exposed, the descending aorta was clamped, and the right atrium was cut to prevent venous return to the heart. A 28G butterfly winged infusion catheter (Terumo Medical Care Solutions) was inserted into the left ventricle and mice were perfused with a modified physiological buffer containing 10 μM WDR5 inhibitor ([99]). […] To determine brain uptake of WDR5 inhibitors, mice were perfused for 120 seconds. The experiment was concluded by decapitation of the mouse. Following termination, the brain was rapidly removed and placed on ice. Inhibitor concentration in both brain and blood was determined by liquid chromatography tandem mass spectroscopy (Q2 Solutions). The unidirectional uptake transfer constant (Kin) was calculated by the following relationship ([100]):
Where Qbr is the concentration of WDR5 inhibitor in brain (ng/g) corrected for residual inhibitor remaining in cerebrovasculature at the end of the perfusion time frame, Cpf is the perfusion fluid concentration of WDR5 inhibitor (ng/mL), T is the time length of the perfusion experiment, and V0 is the vascular volume of the WDR5 inhibitor (mL/g).
MV4:11 = details: read-out: MV4:11 GI50; cited from earlier work

COc1cc(Cn2nnc3c2CCc2c(-c4cn(C)nc4C(F)(F)F)cc(Cn4ccnc4C)cc2-3)cc(OC)c1 [C3TD078]
time remaining bound to WDR5 after washout (WDR5; L0 CSCs, 5 μM for 2 hours, then washout): at least 21 hours | Kd (WDR5; L0 CSCs, 2-hour pretreatment, isothermal 70°C): 2 nM | DI318 ELDA stem cell frequency (1 in N) (DI318 CSCs; 20 nM): 1.6 | DI318 ELDA stem cell frequency (1 in N) (DI318 CSCs; 200 nM): 2.1 | DI318 ELDA stem cell frequency (1 in N) (DI318 CSCs; 2000 nM): 2.2 | effect on stem cell frequency of treated tumors (DI318 flank PDX tumors): did not reduce tumor growth or affect stem cell frequency | GI50 (5 different CSC models): 1000 to 5000 nM | downregulation of WDR5-target genes in treated tumors (WDR5-target genes): did not downregulate WDR5-target genes in treated tumors

COc1cc(Cn2nnc3c2CCc2c-3cc(Cn3ccnc3C)cc2C2CC2)ccc1F [C3TD343]
effect on survival [1]: no effect on survival | tolerability ([1]; up to 71 days): well tolerated | survival in L0 Intracranial Xenograft (Kaplan-Meier) ([1]; vehicle 72 days): 71 days | Brain Penetration Classification (P-glycoprotein (MDR1)): Low | efflux by P-glycoprotein (P-glycoprotein (MDR1); MDR1-MDCK permeability studies): strongly effluxed | Papp A→B at 120 min, 5 μM (P-glycoprotein (MDR1); read-out: Papp A-to-B, AVG): 0.113 ×10⁻⁶ cm/s | Papp A→B at 120 min, 5 μM (P-glycoprotein (MDR1); read-out: Papp A-to-B, R1): 0.131 ×10⁻⁶ cm/s | Papp A→B at 120 min, 5 μM (P-glycoprotein (MDR1); read-out: Papp A-to-B, R2): 0.0949 ×10⁻⁶ cm/s | Papp B→A at 120 min, 5 μM (P-glycoprotein (MDR1); read-out: Papp B-to-A, AVG): 43.3 ×10⁻⁶ cm/s | Papp B→A at 120 min, 5 μM (P-glycoprotein (MDR1); read-out: Papp B-to-A, R1): 40.2 ×10⁻⁶ cm/s | Papp B→A at 120 min, 5 μM (P-glycoprotein (MDR1); read-out: Papp B-to-A, R2): 46.3 ×10⁻⁶ cm/s | recovery at 120 min, 5 μM (P-glycoprotein (MDR1); read-out: Recovery, A-to-B): 71.2% | recovery at 120 min, 5 μM (P-glycoprotein (MDR1); read-out: Recovery, B-to-A): 76.8% | unidirectional brain uptake constant Kin (In situ brain perfusion): > 50 × 10^–4 mL/s/g

COc1cc(CN2CCc3c(cc(Cn4ccn(C)c4=N)cc3-c3ccc(F)cc3C)C2=O)cc(OC)c1 [C16, reference compound]
ΔTm at 10 µM (WDR5; L0 cells, 10 μM, 2 hours): 35 °C | Brain Penetration Classification (P-glycoprotein (MDR1)): Low | Papp A→B at 120 min, 5 μM (P-glycoprotein (MDR1); read-out: Papp A-to-B, AVG): 0.715 ×10⁻⁶ cm/s | Papp A→B at 120 min, 5 μM (P-glycoprotein (MDR1); read-out: Papp A-to-B, R1): 0.556 ×10⁻⁶ cm/s | Papp A→B at 120 min, 5 μM (P-glycoprotein (MDR1); read-out: Papp A-to-B, R2): 0.875 ×10⁻⁶ cm/s | Papp B→A at 120 min, 5 μM (P-glycoprotein (MDR1); read-out: Papp B-to-A, AVG): 1.7 ×10⁻⁶ cm/s | Papp B→A at 120 min, 5 μM (P-glycoprotein (MDR1); read-out: Papp B-to-A, R1): 1.49 ×10⁻⁶ cm/s | Papp B→A at 120 min, 5 μM (P-glycoprotein (MDR1); read-out: Papp B-to-A, R2): 1.91 ×10⁻⁶ cm/s | recovery at 120 min, 5 μM (P-glycoprotein (MDR1); read-out: Recovery, A-to-B): 85.6% | recovery at 120 min, 5 μM (P-glycoprotein (MDR1); read-out: Recovery, B-to-A): 87.3% | unidirectional brain uptake constant Kin (In situ brain perfusion): < 5 × 10^–4 mL/s/g | GI50 (5 different CSC models): 1000 to 5000 nM | GI50 (MV4:11): 38 nM
